According to ChEMBL document CHEMBL1201862, “PubChem BioAssay data set” (2004):
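Five compound concentrations were applied to cells in 96-well plates for 48 hours; endpoints were derived by simple linear interpolation of the resulting dose-response curve. Abbreviation: GI50, concentration required for 50% inhibition of growth.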 The source made the active and inactive calls. Cut-off read from the data, not from the text of the source: active = GI50 up to about 1.1 µM and inactive = higher.

Assays:
Assay in all cases: growth of human tumour cells (NCI), 48 h
786-0 = system: 786-0
A498 = system: A498
A549 = system: A549
ACHN = system: ACHN
BT-549 = system: BT-549
CAKI-1 = system: CAKI-1
CCRF-CEM = system: CCRF-CEM
COLO 205 = system: COLO 205
DLD-1 = system: DLD-1
DMS-114 = system: DMS-114
DMS-273 = system: DMS-273
DU-145 = system: DU-145
EKVX = system: EKVX
HCC 2998 = system: HCC 2998
HCT-116 = system: HCT-116
HCT-15 = system: HCT-15
HL-60 = system: HL-60
HOP-18 = system: HOP-18
HOP-62 = system: HOP-62
HOP-92 = system: HOP-92
HT-29 = system: HT-29
Hs-578T = system: Hs-578T
IGROV-1 = system: IGROV-1
K562 = system: K562
KM-20L2 = system: KM-20L2
KM12 = system: KM12
LOX IMVI = system: LOX IMVI
LXFL 529 = system: LXFL 529
M14 = system: M14
M19-MEL = system: M19-MEL
MCF7 = system: MCF7
MDA-MB-231 = system: MDA-MB-231
MDA-MB-435 = system: MDA-MB-435
MDA-N = system: MDA-N
MOLT-4 = system: MOLT-4
Malme-3M = system: Malme-3M
NCI-H226 = system: NCI-H226
NCI-H23 = system: NCI-H23
NCI-H460 = system: NCI-H460
NCI-H522 = system: NCI-H522
NCI/ADR-RES = system: NCI/ADR-RES
OVCAR-3 = system: OVCAR-3
OVCAR-4 = system: OVCAR-4
OVCAR-5 = system: OVCAR-5
OVCAR-8 = system: OVCAR-8
PC-3 = system: PC-3
RPMI-8226 = system: RPMI-8226
RXF 393 = system: RXF 393
SF-268 = system: SF-268
SF-295 = system: SF-295
SF-539 = system: SF-539
SK-MEL-28 = system: SK-MEL-28
SK-MEL-2 = system: SK-MEL-2
SK-MEL-5 = system: SK-MEL-5
SK-OV-3 = system: SK-OV-3
SN12C = system: SN12C
SNB-19 = system: SNB-19
SNB-75 = system: SNB-75
SNB-78 = system: SNB-78
SR = system: SR
SW-620 = system: SW-620
T47D = system: T47D
TK-10 = system: TK-10
U-251 = system: U-251
UACC-257 = system: UACC-257
UACC-62 = system: UACC-62
UO-31 = system: UO-31
XF498 = system: XF498

## CCN(CC)CC(=O)O[C@]1(CC)C(=O)OCc2c1cc1n(c2=O)Cc2cc3ccccc3nc2-1
786-0
  GI50: < 10.7 nM (active)
A498
  GI50: 58.3 nM (active)
A549
  GI50: 23.7 nM (active)
ACHN
  GI50: < 10 nM (active)
BT-549
  GI50: 41.3 nM (active)
CAKI-1
  GI50: < 10 nM (active)
CCRF-CEM
  GI50: < 10 nM (active)
COLO 205
  GI50: 209 nM (active)
DLD-1
  GI50: 916 nM (active)
DMS-114
  GI50: 14.2 nM (active)
DMS-273
  GI50: < 10 nM (active)
DU-145
  GI50: < 10 nM (active)
EKVX
  GI50: 256 nM (active)
HCC 2998
  GI50: 149 nM (active)
HCT-116
  GI50: 30.7 nM (active)
HCT-15
  GI50: 170 nM
HL-60
  GI50: 17.1 nM (active)
HOP-18
  GI50: 90.8 nM (active)
HOP-62
  GI50: < 10 nM (active)
HOP-92
  GI50: 211 nM (active)
HT-29
  GI50: 95.7 nM (active)
Hs-578T
  GI50: 3210 nM (inactive)
IGROV-1
  GI50: 110 nM (active)
K562
  GI50: 45.1 nM (active)
KM-20L2
  GI50: 152 nM (active)
KM12
  GI50: 149 nM (active)
LOX IMVI
  GI50: < 11.6 nM (active)
LXFL 529
  GI50: 404 nM (active)
M14
  GI50: < 20.1 nM (active)
M19-MEL
  GI50: 90.2 nM (active)
MCF7
  GI50: < 10 nM (active)
MDA-MB-231
  GI50: 3370 nM (inactive)
MDA-MB-435
  GI50: 70.3 nM (active)
MDA-N
  GI50: 95.1 nM (active)
MOLT-4
  GI50: < 10 nM (active)
Malme-3M
  GI50: 219 nM (active)
NCI-H226
  GI50: 20.9 nM (active)
NCI-H23
  GI50: < 16 nM (active)
NCI-H460
  GI50: < 10 nM (active)
NCI-H522
  GI50: 24.7 nM (active)
NCI/ADR-RES
  GI50: < 10 nM (active)
OVCAR-3
  GI50: 219 nM (active)
OVCAR-4
  GI50: 201 nM (active)
OVCAR-5
  GI50: 88.5 nM (active)
OVCAR-8
  GI50: 28.5 nM (active)
PC-3
  GI50: 54 nM (active)
RPMI-8226
  GI50: 165 nM (active)
RXF 393
  GI50: 83.6 nM (active)
SF-268
  GI50: < 12 nM (active)
SF-295
  GI50: 10.2 nM (active)
SF-539
  GI50: < 13.9 nM (active)
SK-MEL-28
  GI50: 179 nM (active)
SK-MEL-2
  GI50: 382 nM (active)
SK-MEL-5
  GI50: 31.3 nM (active)
SK-OV-3
  GI50: 82.6 nM (active)
SN12C
  GI50: 20.4 nM (active)
SNB-19
  GI50: < 10 nM (active)
SNB-75
  GI50: 26.6 nM (active)
SNB-78
  GI50: 953 nM (active)
SR
  GI50: < 10 nM (active)
SW-620
  GI50: 94.6 nM (active)
T47D
  GI50: < 10 nM (active)
TK-10
  GI50: 1360 nM (inactive)
U-251
  GI50: < 10 nM (active)
UACC-257
  GI50: 79.8 nM (active)
UACC-62
  GI50: < 10 nM (active)
UO-31
  GI50: 19.6 nM (active)
XF498
  GI50: 200 nM (active)
